From patent US10369133B2, “Immunosuppressive compounds and therapeutics” (UNIVERSITY OF TENNESSEE RESEARCH FOUNDATION, priority 2013, dated 2019)

How the values were obtained:
human islets [1] = assay: Dynamic insulin release (perifusion) assay of human islets; type: cell-based; settings: co-incubation with drug; for insulin release pattern under stimulatory glucose: basal then stimulatory glucose
Experimental: Briefly, 50 islets from each group were perifused with basal glucose for 60 min and stimulatory glucose for 30 min and finally with basal glucose until insulin release reversed to the basal level. Samples were collected through an automatic fraction collector and analyzed for insulin content by ELISA.
The insulin secretion from human islets was quantified using a dynamic islet perifusion assay as described before. See Wu et al., 2011, The Journal of Gene Medicine, 13:658-669. Briefly, 50 islets from each group were handpicked and loaded onto a Swinnex 13 chamber (Millipore, Burlington, Mass., USA) and perifused with Krebs-Ringer bicarbonate HEPES buffer of the following composition (in mM): 129 NaCl, 5 NaHCO3, 4.8 KCl, 1.2 KH2PO4, 1.2 MgSO4, 2.5 CaCl2, and 10 HEPES at pH 7.4. The flow rate was maintained at 1 ml/min with a peristaltic pump (Themo Fisher, Waltham, Mass.) and the temperature was maintained at 37° C. with a solution heater (Warner Instruments, Hamden, Conn.). Islets were first perifused with basal glucose for 60 min, stimulatory glucose for 20 min and basal glucose until insulin release reversed to the basal level. The perifusion speed was set to 2 mL/minute and samples were collected once per minute through an automatic fraction collector (Waters, Milford, Mass.) and analyzed for insulin content by ELISA.
A dynamic insulin release assay was used to evaluate the function of human islets. Briefly, […] handpicked human islets were sequentially perfused with basal and stimulatory glucose. The samples were collected using an auto-sampler and subjected to ELISA.

PHA-stimulated T cells = assay: T cell activation markers in medium of PHA-stimulated T cells by ELISA; type: cell-based, human; settings: 5 μM; for level of IFNγ / level of TNFα: medium of T cells following PHA stimulation; for level of IL-2 / level of IL-2 receptors: medium of T cells, 48 h following PHA stimulation
Experimental: Briefly, human peripheral blood mononuclear cells PBMCs were isolated from human buffy coat using Ficoll-Paque. T cells ([…]) were isolated from PBMCs using dynabeads for human CD3+ T cells and subjected to PHA (1 μg/mL) stimulation for 24 h alone or with JP-3-110 (5 μM) and MPA (5 μM) for additional 48 h. The PHA-stimulated proliferation of T cells is characterized by a quick drop in the early stage (24 h) and a following fast-proliferative stage. FIGS. 3B and 3C show charts depicting the levels of IL-2, IL-2 receptor, TNFα and IFNγ in the media of T cells at 48 h following PHA stimulation. IL-2 and IL-2 receptor were transient expressed markers for early stage T cell activation while TNFα and IFNγ were stably expressed markers for later-stage T cell activation. Results are presented as the mean±S.D., n=6.
PBMCs were isolated using Ficoll Paque. T cells were isolated from PBMCs using Dynabeads for. T cells were stimulated with PHA (1 μg/ml) for 24 h alone or in the presence of TNP (5 μM) or JP-3-110 (5 μM) for additional 4 days. The total number of PBMCs was measured using T4 Automatic Cell Counter (Nexcelom, Lawrence, Mass.). The extent of T cell activation was determined by measuring the level of IL-2, IL-2sRa, TNFα and IFN-γ in the medium using ELISA at indicated time.
Mixed lymphocytes reaction was used to determine the immunosuppressive effects of MPA and JP-3-110. T cells were purified using dynabeads from peripheral blood mononuclear cells (PBMCs), which were initially isolated from human buffy coat (FIG. 8A). […] The levels of IL-2, IL-2sRa, TNFα and IFNγ were detected by ELISA to study the effects of JP-3-110 and MPA on T cell activation. IL-2 and IL-2R typically peaked at the first 48 h after PHA stimulation as markers for the early stage T cell activation, while TNFα and IFNγ were constitutively expressed by PHA-stimulated T cells as later-stage markers for T cell activation. […] However, the results might be due to an overlap between the immunosuppressive pathway and the anti-inflammatory pathway of JP-3-110 and MPA.

human islets [2] = assay: Annexin V-FITC flow cytometry of apoptotic cells in human islets; type: cell-based; settings: 20 μM, 5 days coculture
Experimental: Results are presented as the mean±S.D., n=3. […] Apoptotic cells were stained in dark (arrows). […] Islet was collected and dispersed with 0.25% Trypsin/EDTA into single cell suspension. P3 indicated the percentage of apoptotic cells. All experiments were performed in triplicates. Results are presented as the mean±SD. *p<0.05 as determined by an unpaired Student's t-test, n=6.
The apoptosis of INS-1E cells was analyzed using terminal deoxynucleotidyl transferase dUTP nick end labeling (TUNEL). Briefly, following JP-3-110 treatment for 48 h and cytokine cocktail treatment for additional 48 h, INS-1E cells were characterized by the DeadEnd™ Colorimetric TUNEL system (Promega, Madison, Wis., USA), in which fragmented DNA from apoptotic cells was labeled with biotinylated nucleotide and detected using hydrogen peroxide and diaminobenzidine. For human islets, following treatment with JP-3-110 and cytokines, human islets were digested with 0.25% trypsin/EDTA into a single-cell suspension, stained with the Annexin V-FITC Apoptosis Detection Kit (Abcam, Cambridge, Mass.) and analyzed with flow cytometry. Annexin V binds to phosphatidylserine on the cell surface, which is a feature found in apoptotic cells. Fluorescent intensity was analyzed using CellQuest software (BD Bioscience, Franklin Lakes, N.J.). […]
We then determined the conjugation with TNP can reduce the pro-apoptotic effect of MPA. […]

## CCCCNC(=O)[C@]1(O)C[C@@H](O)[C@@H](O)[C@H](OC(=O)CC/C(C)=C/Cc2c(OC)c(C)c3c(c2OC(C)=O)C(=O)OC3)C1 [JP-3-110, (1R,2R,3R,5S)-5-(butylcarbamoyl)-2,3,5-trihydroxycyclohexyl (E)-6-(4-acetoxy-6-methoxy-7-methyl-3-oxo-1,3-dihydroisobenzofuran-5-yl)-4-methylhex-4-enoate]
Human islets [1]
  insulin release pattern under stimulatory glucose: clear biphasic insulin release
PHA-stimulated T cells
  level of IFNγ: moderate inhibition
  level of TNFα: moderate inhibition
  level of IL-2: did not have any effect
  level of IL-2 receptors: did not have any effect
Human islets [2]
  apoptotic cells in human islets (annexin V): significantly reduced the percentage of apoptotic cells

## COc1c(C)c2c(c(O)c1C/C=C(\C)CCC(=O)O)C(=O)OC2 [MPA, mycophenolic acid, reference compound]
Human islets [1]
  total insulin release to stimulatory glucose: significantly reduction
  insulin release pattern under stimulatory glucose: impaired the insulin release from both phases
PHA-stimulated T cells
  level of IFNγ: moderate inhibition
  level of TNFα: moderate inhibition
  level of IL-2: did not have any effect
  level of IL-2 receptors: did not have any effect
Human islets [2]
  apoptotic cells in human islets (annexin V): induced substantial apoptotic cell death
